Results on 43 compounds are retold here after patent publication US6784201B2, “Benzothiepines having activity as inhibitors of ileal bile acid transport and taurocholate uptake” (G.D. Searle & Company, priority 1994, dated 2004).

This assay concerns the target T1, human IBAT (Homo sapiens, UniProt Q12908).
T1 construct: expressed in transfected cells; host or cells: Baby hamster kidney (BHK) cells, clone H14
T1 sequence (Q12908 1-348): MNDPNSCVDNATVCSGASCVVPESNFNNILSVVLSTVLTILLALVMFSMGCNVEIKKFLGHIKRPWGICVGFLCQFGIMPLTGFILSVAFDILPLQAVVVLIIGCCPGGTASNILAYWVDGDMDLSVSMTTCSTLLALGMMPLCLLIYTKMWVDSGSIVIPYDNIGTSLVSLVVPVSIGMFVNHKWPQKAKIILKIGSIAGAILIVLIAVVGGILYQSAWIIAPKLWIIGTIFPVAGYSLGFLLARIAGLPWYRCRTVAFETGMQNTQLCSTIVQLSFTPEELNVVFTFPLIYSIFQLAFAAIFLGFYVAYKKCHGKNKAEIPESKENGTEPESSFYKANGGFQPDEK
The assay can be described thus: In vitro assay of IBAT-mediated uptake of [14C]-taurocholate (TC) in H14 cells. It is filed as cell-based. As to conditions: for inhibition at 100 µM: read-out: In vitro % Inhibition of TC Uptake @ 100 uM. As to the method:
In Vitro Assay of Compounds that Inhibit IBAT-Mediated Uptake of [^14C]-Taurocholate (TC) in H14 Cells
Baby hamster kidney cells (BHK) transfected with the cDNA of human IBAT (H14 cells) are seeded at 60,000 cells/well in 96 well Top-Count tissue culture plates for assays run within in 24 hours of seeding, 30,000 cells/well for assays run within 48 hours, and 10,000 cells/well for assays run within 72 hours.
On the day of assay, the cell monolayer is gently washed once with 100 μl assay buffer (Dulbecco's Modified Eagle's medium with 4.5 g/L glucose+0.2% (w/v) fatty acid free bovine serum albumin-(FAF)BSA). To each well 50 μl of a two-fold concentrate of test compound in assay buffer is added along with 50 μl of 6 μM [^14C]-taurocholate in assay buffer (final concentration of 3 μM [^14C]-taurocholate). The cell culture plates are incubated 2 hours at 37° C. prior to gently washing each well twice with 100 μl 4° C. Dulbecco's phosphate-buffered saline (PBS) containing 0.2% (w/v) (FAF)BSA. The wells are then gently washed once with 100 μl 4° C. PBS without (FAF)BSA. To each 200 μl of liquid scintillation counting fluid is added, the plates are heat sealed and shaken for 30 minutes at room temperature prior to measuring the amount of radioactivity in each well on a Packard Top-Count instrument.

Where [1] appears, read: H14 cells, Table 5, read-out: IC50 uM (In vitro Taurocholate Cell Uptake).

Like-named read-outs stand apart in the source and are kept apart here.

In the case of “8b-Phenyl-1a,2,3,8b-tetrahydrospiro(benzothiepino[4,5-b]oxirene-2,1′-cyclohexane)-4,4-dioxide [Example 58]”, the “In vitro % Inhibition of TC Uptake” value (50 μM) was determined as 88%.
Take `CCCC[C@]1(CC)CSc2ccccc2[C@H](c2ccccc2)C1=O` (relative stereo) [Example 4a, cis-3-Butyl-3-ethyl-5-phenyl-2,3-dihydrobenzothiepin-(5H)4-one]: the inhibition at 100 µM was found to be 3%.
On the same count and under the same terms, to `CCCC[C@]1(CC)CSc2ccccc2[C@@H](c2ccccc2)C1=O` (relative stereo) [Example 4b, trans-3-Butyl-3-ethyl-5-phenyl-2,3-dihydro-benzothiepin-(5H)4-one] belongs 9%.
For the compound `CCCC[C@]1(CC)CS(=O)(=O)c2ccccc2[C@H](c2ccccc2)C1=O` (relative stereo) [Example 5a, cis-3-Butyl-3-ethyl-5-phenyl-2,3-dihydrobenzothiepin-(5H) 4-one-1,1-dioxide], the inhibition at 100 µM came out at 34%.
Regarding `O=S1(=O)CC2(CCCCC2)[C@@H](O)[C@H](c2ccccc2)c2ccccc21` (relative stereo) [Example 59, trans-4-Hydroxy-5-phenyl-2,3,4,5-tetrahydro spiro(benzothiepine-3,1′-cyclohexane)-1,1-dioxide], the half-inhibitory concentration (IC50) under setting [1] came out at 70 µM.
`CCCCC1(CC)CS(=O)(=O)c2ccccc2C(Sc2ccccc2)C1O` (single isomer, unassigned) [Example 21b, 3-Butyl-3-ethyl-4-hydroxy-5-phenylthio-2,3,4,5-tetrahydro-benzothiepine-1,1-dioxide]: the “In vitro % Inhibition of TC Uptake @ 100 uM” value is recorded as 45%.
Same read-out and setting: under `CCCCC1(CC)CS(=O)(=O)c2ccccc2C(Sc2ccccc2)C1O` (single isomer, unassigned) [Example 21c, 3-Butyl-3-ethyl-4-hydroxy-5-phenylthio-2,3,4,5-tetrahydro-benzothiepine-1,1-dioxide] stands 52%.
In the case of `CCCCC1(CC)CS(=O)(=O)c2ccc(NC(=O)OCc3ccccc3)cc2C(c2ccc(OC)cc2)C1O` (single isomer, unassigned) [Example 115], under “read-out: Human TC IC50”, the IC50 was determined as 8 µM.
Same read-out and setting: under `CCCCC1(CC)CS(=O)(=O)c2ccc(NC(=O)OCc3ccccc3)cc2C(c2ccc(OC)cc2)C1O` (single isomer, unassigned) [Example 116] stands 0.3 µM; under `CCCCC1(CC)CS(=O)(=O)c2ccc(N)cc2C(c2ccccc2)C1O` (single isomer, unassigned) [Example 121], 0.068 µM; under `CCCCC1(CC)CS(=O)(=O)c2ccc(N)cc2C(c2ccccc2)C1O` (single isomer, unassigned) [Example 122], 1.07 µM.
Still for that read-out and setting: under `CCCCC1(CC)CS(=O)(=O)c2ccc(N)cc2C(c2ccc(F)cc2)C1O` (single isomer, unassigned) [Example 127] stands 0.55 µM; under `CCCCC1(CC)CS(=O)(=O)c2ccc(N)cc2C(c2ccc(F)cc2)C1O` (single isomer, unassigned) [Example 129], 0.035 µM; under `CCCCC1(CC)CS(=O)(=O)c2ccc(SC)cc2C(c2cccc(OC)c2)C1O` (single isomer, unassigned) [Example 142], 0.5 µM.
Same read-out and setting: under `CCCCC1(CC)CS(=O)(=O)c2ccc(SC)cc2C(c2cccc(OC)c2)C1O` (single isomer, unassigned) [Example 143] stands 0.03 µM.
For `CCCCC1(CC)CS(=O)(=O)c2ccc(OC)cc2C(c2cccc(OC)c2)C1O` (single isomer, unassigned) [Example 262], the IC50 (read-out: Human TC IC50) was determined as 0.07 µM.
Turning to `CCCCC1(CC)CS(=O)(=O)c2ccc(OC)cc2C(c2cccc(OC)c2)C1O` (single isomer, unassigned) [Example 263], under “read-out: Human TC IC50”, the IC50 came to 0.7 µM.
On the same count and under the same terms, to `CCCCC1(CC)CS(=O)(=O)c2ccc(OC)cc2C(c2cccc(C(F)(F)F)c2)C1O` (single isomer, unassigned) [Example 264] belongs 0.2 µM.
The same measure, in the same setting: to `CCCCC1(CC)CS(=O)(=O)c2ccc(OC)cc2C(c2cccc(C(F)(F)F)c2)C1O` (single isomer, unassigned) [Example 265] belongs 2 µM; to `CCCCC1(CC)CS(=O)(=O)c2ccc(Br)cc2C(c2cccc(OC)c2)C1O` (single isomer, unassigned) [Example 271], 0.07 µM.
`CCCCC1(CC)CS(=O)(=O)c2ccc(Br)cc2C(c2cccc(OC)c2)C1O` (single isomer, unassigned) [Example 272]: the IC50 (read-out: Human TC IC50) was 0.7 µM.
In the case of `CCCCC1(CC)CS(=O)(=O)c2ccc(F)cc2C(c2ccc(F)cc2)C1O` (single isomer, unassigned) [Example 273], the IC50 (read-out: Human TC IC50) turned out to be 1.9 µM.
Turning to `CCCCC1(CC)CS(=O)(=O)c2ccc(F)cc2C(c2ccc(F)cc2)C1O` (single isomer, unassigned) [Example 274], the IC50 (read-out: Human TC IC50) was 0.18 µM.
Still for that read-out and setting: under `CCCCC1(CC)CS(=O)(=O)c2ccc(C)cc2C(c2ccc(F)cc2)C1O` (single isomer, unassigned) [Example 282] stands 0.021 µM; under `CCCCC1(CC)CS(=O)(=O)c2ccc(C)cc2C(c2ccc(F)cc2)C1O` (single isomer, unassigned) [Example 283], 0.35 µM; under `CCCCC1(CCCC)CS(=O)(=O)c2c(cccc2N(C)C)C(c2ccsc2)C1O` (single isomer, unassigned) [Example 1067], 0.004 µM.
Same read-out and setting: to `CCCCC1(CC)CS(=O)(=O)c2ccc(N(C)C)cc2C(c2ccc(O)cc2)C1O` (single isomer, unassigned) [Example 1078] belongs 0.0045 µM; to `CCCCC1(CC)CS(=O)(=O)c2ccc(N(C)C)cc2C(c2cccc(C)c2)C1O` (single isomer, unassigned) [Example 1116], 0.0093 µM.
For the compound `CCCCC1(CCCC)CS(=O)(=O)c2ccc(N(C)C)cc2C(c2ccc(OC)c(F)c2)C1O` (single isomer, unassigned) [Example 1143], the IC50 (read-out: Human TC IC50) turned out to be 0.027 µM.
Same read-out and setting: under `CCCCC1(CC)CS(=O)(=O)c2ccc(N(C)C)cc2C(c2ccc(OC)c(F)c2)C1O` (single isomer, unassigned) [Example 1151] stands 0.031 µM; under `CCCCC1(CCCC)CS(=O)(=O)c2ccc(N(C)C)cc2C(c2ccccc2)C1O` (single isomer, unassigned) [Example 1200], 6.1 µM; under `CCCCC1(CCCC)CS(=O)(=O)c2c(cccc2N2CCOCC2)C(c2ccc(OC)cc2)C1O` (single isomer, unassigned) [Example 1212], 0.39 µM.
Regarding `CCCCC1(CC)CS(=O)(=O)c2ccc(N(C)C)cc2C(c2ccc(OC)c(F)c2)C1O` (single isomer, unassigned) [Example 1213], the IC50 (read-out: Human TC IC50) came out at 1.7 µM.
`CCCCC1(CC)CS(=O)(=O)c2ccc(N(C)C)cc2C(c2cccc(C)c2)C1O` (single isomer, unassigned) [Example 1225]: the IC50 (read-out: Human TC IC50) came to 0.12 µM.
Same read-out and setting: under `CCCCC1(CCCC)CS(=O)(=O)c2c(cccc2N(C)C)C(c2ccsc2)C1O` (single isomer, unassigned) [Example 1232] stands 1.2 µM.
`CCCCC1(CC)CS(=O)(=O)c2ccc(N(C)C)cc2C(c2ccccc2)C1O` (single isomer, unassigned) [Example 1259]: the IC50 (Human TC IC50) stood at 16.5 µM.
Take `CCCCC1(CC)CS(=O)(=O)c2ccc(N(C)C)cc2C(c2ccc(O)cc2)C1O` (single isomer, unassigned) [Example 1287]: the IC50 (read-out: Human TC IC50) was determined as 0.071 µM.
Consider `CCCCC1(CC)CS(=O)(=O)c2ccc(N(C)C)cc2C(c2ccccc2)C1O` (single isomer, unassigned) [Example 1300], for which the IC50 (Human TC IC50) worked out at 1 µM.
`CCCCC1(CCCC)CS(=O)(=O)c2c(cccc2N2CCOCC2)C(c2ccc(OC)cc2)C1O` (single isomer, unassigned) [Example 1307]: the IC50 (read-out: Human TC IC50) was found to be 3.1 µM.
The same measure, in the same setting: under `CCCCC1(CC)CS(=O)(=O)c2ccc(NO)cc2C(c2ccccc2)C1O` (single isomer, unassigned) [Example 1311] stands 3.27 µM; under `CCCCC1(CC)CS(=O)(=O)c2ccc(NO)cc2C(c2ccccc2)C1O` (single isomer, unassigned) [Example 1314], 0.26 µM.
As for `CCCCC1(CC)C=C(c2ccccc2)c2ccccc2SC1` (stereo not shown) [Example 3, 3-Butyl-3-ethyl-5-phenyl-2,3-dihydrobenzothiepine], the inhibition at 100 µM worked out at 0%.
Turning to `CCCC[C@]1(CC)CS(=O)(=O)c2ccccc2[C@@H](c2ccccc2)[C@@H]1O` [Example 6a, (3α,4α,5β) 3-Butyl-3-ethyl-4-hydroxy-5-phenyl-2,3,4,5-tetrahydrobenzothiepine-1,1-dioxide], under setting [1], the IC50 stood at 5 µM.

The term inhibition denotes how much of the control response was suppressed. Usually IC50 stands for the concentration at which inhibition is half-maximal.
